From article PMC6754100 (Journal of the American Chemical Society, 2019)
Where a name gives a salt, the structure may show the parent alone.

Biological target: T1, human ornithine aminotransferase (hOAT) (Homo sapiens, UniProt P04181)
T1 sequence (P04181 26-439): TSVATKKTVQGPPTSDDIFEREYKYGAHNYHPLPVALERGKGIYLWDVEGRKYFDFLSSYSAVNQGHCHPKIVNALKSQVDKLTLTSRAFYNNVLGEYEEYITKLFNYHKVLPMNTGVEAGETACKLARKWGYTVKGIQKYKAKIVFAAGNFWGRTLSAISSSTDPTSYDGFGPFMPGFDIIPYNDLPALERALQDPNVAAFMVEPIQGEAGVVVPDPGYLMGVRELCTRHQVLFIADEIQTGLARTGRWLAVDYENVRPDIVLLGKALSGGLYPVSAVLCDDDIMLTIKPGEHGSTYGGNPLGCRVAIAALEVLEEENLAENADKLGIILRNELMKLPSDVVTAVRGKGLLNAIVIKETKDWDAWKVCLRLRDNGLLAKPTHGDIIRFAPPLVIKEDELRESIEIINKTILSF
Assay: […] Å crystal structure of the inactivated enzyme
Format: biochemical
Details: read-out: Ki

N[C@H]1C[C@@H](C(=O)O)CC1=C(C(F)(F)F)C(F)(F)F [compound 1, (1S,3S)-3-amino-4-(perfluoropropan-2-ylidene)cyclopentane-1-carboxylic acid hydrochloride]
KI (inactivation): 54 µM
